Results: publication PMC8654833 (Scientific Reports, 2021)
pIC50: −log10 of the molar value.

What was measured:
Ca^2+ channel, vs = assay: Single-concentration radioligand binding screen (Eurofins Cerep), Ca2+ channel verapamil site; conditions: single concentration 10 µM screen, [3H]D888
Experimental: (§1) This study included binding assays (87 GPCR targets), measured as % of binding inhibition of a reference radioligand, as well as uptake and enzyme assays (19 targets), the latter measured as % inhibition of control enzyme activity. […] It was performed by radioligand binding competition by Euroscreen (Euroscreen FAST, Belgium). The following nanomolar concentrations were tested in duplicate: 0.001, 0.01, 0.1, 1, 10, 100, 1000, 10,000. Dose–response curves were fitted with the least squares method. IC50 results are shown as pIC50, corresponding to the negative log10 of IC50 in molar.

NET [1] = target: T1, NET (Homo sapiens, UniProt P23975); assay: Single-concentration radioligand binding screen (Eurofins Cerep), norepinephrine transporter; conditions: single concentration 10 µM screen, 3H]nisoxetine
T1 construct: Euroscreen FAST (contract assay)
Experimental: as §1

5-HT1B = target: T2, 5-HT1B (Homo sapiens, UniProt P28222); assay: Radioligand binding competition dose-response (Euroscreen), 5-HT1B
T2 construct: Euroscreen FAST (contract assay)
Experimental: as §1

5-HT1A = target: T3, 5-HT1A (Homo sapiens, UniProt P08908); assay: Radioligand binding competition dose-response (Euroscreen), 5-HT1A
T3 construct: Euroscreen FAST (contract assay)
T3 sequence (P08908 1-422): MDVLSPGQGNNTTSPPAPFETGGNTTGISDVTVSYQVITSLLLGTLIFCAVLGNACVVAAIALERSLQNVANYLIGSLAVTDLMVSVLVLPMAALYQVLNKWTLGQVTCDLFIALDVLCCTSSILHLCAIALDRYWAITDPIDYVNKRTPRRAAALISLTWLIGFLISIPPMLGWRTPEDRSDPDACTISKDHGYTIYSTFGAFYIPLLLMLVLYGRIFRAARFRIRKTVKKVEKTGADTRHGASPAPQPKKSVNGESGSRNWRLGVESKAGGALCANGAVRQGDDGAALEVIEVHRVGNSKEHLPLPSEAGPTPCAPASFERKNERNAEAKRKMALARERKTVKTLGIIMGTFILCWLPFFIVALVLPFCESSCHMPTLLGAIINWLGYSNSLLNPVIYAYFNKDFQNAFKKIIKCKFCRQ
Experimental: as §1

5-HT2C = target: T4, 5-HT2C (Homo sapiens, UniProt P28335); assay: Radioligand binding competition dose-response (Euroscreen), 5-HT2C
T4 construct: Euroscreen FAST (contract assay)
T4 sequence (P28335 33-458): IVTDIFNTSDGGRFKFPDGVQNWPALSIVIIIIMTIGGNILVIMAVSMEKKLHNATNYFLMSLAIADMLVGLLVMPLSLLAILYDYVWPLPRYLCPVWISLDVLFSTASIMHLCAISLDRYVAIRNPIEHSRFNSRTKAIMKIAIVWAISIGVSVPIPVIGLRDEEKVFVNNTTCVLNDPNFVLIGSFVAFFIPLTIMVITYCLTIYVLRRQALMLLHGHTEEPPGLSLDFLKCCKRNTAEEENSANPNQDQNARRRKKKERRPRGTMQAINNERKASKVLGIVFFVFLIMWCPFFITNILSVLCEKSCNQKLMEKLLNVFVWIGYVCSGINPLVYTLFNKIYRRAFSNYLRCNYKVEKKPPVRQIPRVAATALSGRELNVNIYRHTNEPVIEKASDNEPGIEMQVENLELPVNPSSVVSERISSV
Experimental: as §1

5-HT5A = target: T5, 5-HT5A (Homo sapiens, UniProt P47898); assay: Radioligand binding competition dose-response (Euroscreen), 5-HT5A
T5 construct: Euroscreen FAST (contract assay)
Experimental: as §1

NET [2] = target: T1, NET; assay: Radioligand binding competition dose-response (Euroscreen), norepinephrine transporter; conditions: dose-response study, maximal concentration 10 µM, 3H]nisoxetine
Experimental: as §1

[3] = system: microglia related genes in the cervical and thoracic spinal cord; assay: RT-qPCR of microglia related genes in spinal cord; format: in vivo, Sod1^G86R mice
Experimental: (§2) We then sought to characterize whether BW modulated microglial physiology and used RT-qPCR to measure microglia related genes in the cervical and thoracic spinal cord of animals treated with either vehicle or 3 mg/kg/d of BW. […] We next wanted to see if these changes in gene expression were accompanied by modification of microglial activation in spinal cord of treated mice. Iba1 + cells were classified in 4 different activation states (resting, activated, phagocytic or dystrophic).
Total RNA was extracted from the cervical and thoracic spinal cord of end stage mice using TRIzol (Invitrogen). Reverse transcription was performed using 1 μg of RNA and the iScript cDNA synthesis kit (BioRad). IQ SYBR green Supermix (BioRad) was used to perform RT-PCR. Data were normalized with GeNorm software (RRID: SCR_006763)[25]. Three reporter genes were used for normalization: POL2, TBP and Actin. Oligonucleotide primers are provided in Supplementary Table S1.

[4] = system: microglia and motor neurons in the ventral spinal cord; assay: Iba1 and ChAT immunostaining of lumbar spinal cord; format: in vivo; conditions: Sod1^G86R mice
Experimental: as §2
Lumbar spinal cord was dissected and cryopreserved before OCT inclusion. Samples were cut with a cryostat (Leica CM30505) at 20 µm of thickness. Iba1 (1:100, Sigma cat#SAB2702364, RRID: AB_2820253) and ChaT (1:100, Millipore cat#AB144P) immunostainings were performed using DAB peroxidase technique to assess microglial integrity and motor neuron degeneration. Images were acquired using a Leica DM750 microscope at × 10 magnification. Cells were counted in the ventral horn in a standardized zone with n = 4–10 images per animal, and subsequently classified using FIJI software (RRID: SCR_002285)[23],[24].

5-HT2B [5] = target: T6, 5-HT2B (Homo sapiens, UniProt P41595); conditions: dose-response study, maximal concentration 10 µM, [3H]mesulergine
5-HT2B receptor = conditions: cited from earlier work
in vivo = conditions: CD-1, mouse, po, 10 mg/kg
5-HT2B [6] = target: T6, 5-HT2B; assay: Single-concentration radioligand binding screen (Eurofins Cerep), 5-HT2B; parameters: Euroscreen FAST (contract assay); conditions: single concentration 10 µM screen, [3H]mesulergine

T2 sequence (P28222 whole entry, species assumed): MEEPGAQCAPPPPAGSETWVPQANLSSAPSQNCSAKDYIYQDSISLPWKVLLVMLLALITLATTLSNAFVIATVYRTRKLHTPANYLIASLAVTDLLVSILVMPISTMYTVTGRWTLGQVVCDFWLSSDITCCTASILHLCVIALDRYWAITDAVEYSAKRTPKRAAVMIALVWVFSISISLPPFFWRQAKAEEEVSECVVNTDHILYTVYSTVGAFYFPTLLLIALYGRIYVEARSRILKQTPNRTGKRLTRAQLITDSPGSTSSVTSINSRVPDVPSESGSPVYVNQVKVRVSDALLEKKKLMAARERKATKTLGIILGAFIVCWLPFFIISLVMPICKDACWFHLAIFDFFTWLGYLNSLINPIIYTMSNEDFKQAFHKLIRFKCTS
T6 sequence (P41595 whole entry, species assumed): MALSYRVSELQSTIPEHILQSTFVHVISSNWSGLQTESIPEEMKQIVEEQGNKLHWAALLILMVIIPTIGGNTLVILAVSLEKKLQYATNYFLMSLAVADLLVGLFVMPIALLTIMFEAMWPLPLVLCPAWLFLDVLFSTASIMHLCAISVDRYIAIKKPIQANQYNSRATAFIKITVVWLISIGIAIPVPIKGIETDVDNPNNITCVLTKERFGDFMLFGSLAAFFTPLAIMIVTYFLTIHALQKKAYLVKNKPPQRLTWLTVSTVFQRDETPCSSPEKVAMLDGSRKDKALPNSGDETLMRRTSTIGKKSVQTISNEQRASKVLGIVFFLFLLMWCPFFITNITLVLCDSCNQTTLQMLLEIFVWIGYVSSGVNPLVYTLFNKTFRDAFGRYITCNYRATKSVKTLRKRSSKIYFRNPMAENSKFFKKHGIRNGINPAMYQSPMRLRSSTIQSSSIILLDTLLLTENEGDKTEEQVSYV
T5 sequence (P47898 whole entry, species assumed): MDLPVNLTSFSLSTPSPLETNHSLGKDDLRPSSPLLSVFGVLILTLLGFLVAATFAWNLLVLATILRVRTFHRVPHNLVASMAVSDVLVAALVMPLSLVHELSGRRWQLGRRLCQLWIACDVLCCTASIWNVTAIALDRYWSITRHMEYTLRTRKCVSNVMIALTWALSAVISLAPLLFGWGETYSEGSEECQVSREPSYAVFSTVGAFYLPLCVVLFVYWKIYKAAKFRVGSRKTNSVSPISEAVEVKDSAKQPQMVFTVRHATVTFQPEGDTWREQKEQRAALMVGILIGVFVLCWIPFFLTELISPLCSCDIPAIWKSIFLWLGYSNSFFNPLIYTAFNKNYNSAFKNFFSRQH
T1 sequence (P23975 whole entry): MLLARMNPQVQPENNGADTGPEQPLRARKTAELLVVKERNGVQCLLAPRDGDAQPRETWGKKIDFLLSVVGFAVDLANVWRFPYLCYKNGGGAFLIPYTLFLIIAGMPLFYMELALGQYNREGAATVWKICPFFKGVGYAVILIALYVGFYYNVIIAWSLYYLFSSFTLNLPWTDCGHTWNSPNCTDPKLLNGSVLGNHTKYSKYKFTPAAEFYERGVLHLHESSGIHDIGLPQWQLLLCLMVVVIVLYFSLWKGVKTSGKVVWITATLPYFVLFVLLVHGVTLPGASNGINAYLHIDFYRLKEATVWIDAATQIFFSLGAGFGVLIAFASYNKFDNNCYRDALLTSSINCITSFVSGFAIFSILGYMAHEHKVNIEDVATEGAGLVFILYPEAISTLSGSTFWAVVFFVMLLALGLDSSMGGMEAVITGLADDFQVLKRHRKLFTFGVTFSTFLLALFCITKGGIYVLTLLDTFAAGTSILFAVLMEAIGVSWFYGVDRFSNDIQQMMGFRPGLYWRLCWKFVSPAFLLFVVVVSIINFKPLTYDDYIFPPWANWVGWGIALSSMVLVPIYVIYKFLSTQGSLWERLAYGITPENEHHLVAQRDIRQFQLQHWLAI

CC(N)Cc1c[nH]c2ccc(OCc3cccs3)cc12 (stereo not drawn) [BW, 1-[5-(thiophen-2-ylmethoxy)-1H-indol-3-yl]propan-2-amine]
%Binding inhibition at 10 µM (Ca^2+ channel, vs): 75.5%
inhibition at 10 µM (NET [1]): 68.7%
pIC50 (5-HT1B): 6.74
%Binding inhibition at 10 µM (5-HT1B; dose-response study, maximal concentration 10 µM, [3H]5-CT, 10 µM): 101.39%
inhibition at 10 µM (5-HT1B; read-out: %Binding inhibition at 10 µM, dose-response study, maximal concentration 10 µM, [3H]5-CT): 100%
pIC50 (5-HT1A): 6.23
inhibition at 10 µM (5-HT1A; dose-response study, maximal concentration 10 µM, [3H]8-OH-DPAT): 95%
%Binding inhibition at 10 µM (5-HT1A; dose-response study, maximal concentration 10 µM, [3H]8-OH-DPAT, 10 µM): 95.26%
pIC50 (5-HT2C): 5.88
inhibition at 10 µM (5-HT2C; dose-response study, maximal concentration 10 µM, [3H]mesulergine): 91.1%
pIC50 (5-HT5A): 5.86
inhibition at 10 µM (5-HT5A; dose-response study, maximal concentration 10 µM, [3H]LSD): 84.3%
inhibition at 10 µM (NET [2]): 74.4%
Hexb upregulation in Sod1^G86R mice ([3]; 3 mg/kg/d, spinal cord RT-qPCR): partially prevented
disease-associated upregulation of Nox2 ([3]; 3 mg/kg/d, spinal cord RT-qPCR): partially prevented
disease-associated upregulation of Tyrobp (DAP12) ([3]; 3 mg/kg/d, spinal cord RT-qPCR): partially prevented
upregulation of disease-associated microglia marker Apoe ([3]; 3 mg/kg/d, spinal cord RT-qPCR): blunted the upregulation
upregulation of disease-associated microglia marker Cd9 ([3]; 3 mg/kg/d, spinal cord RT-qPCR): blunted the upregulation
upregulation of disease-associated microglia marker Cst7 ([3]; 3 mg/kg/d, spinal cord RT-qPCR): blunted the upregulation
upregulation of disease-associated microglia marker Lpl ([3]; 3 mg/kg/d, spinal cord RT-qPCR): blunted the upregulation
Tmem119 expression ([3]; Sod1^G86R mice with BW treatment): downregulated
microglial morphology (proportion of resting, activated, phagocytic, dystrophic Iba1+ cells) ([4]; 3 mg/kg/d vs vehicle): No statistically significant difference
loss of motor neurons (ChAT positive cells in the ventral spinal cord) ([4]; 3 mg/kg/d): did not modify
%Binding inhibition at 10 µM (5-HT2B [5]): 103.54%
agonist activity in rat stomach fundus (5-HT2B receptor): potent agonist
Tmax (in vivo): 30 min
inhibition at 10 µM (5-HT2B [6]): 99%
